Results reported in article PMC5218480 (PLoS ONE, 2017).

System: MV-4-11 cells
Assay: Gene expression microarray analysis (Affymetrix PrimeView) and GSEA
Assay type: cell-based, human
Parameters: RFU PODN (11730768_x_at) / Fold change /veh PODN (11730768_x_at) / RFU LINC00158 (11744669_a_at) / Fold change /veh LINC00158 (11744669_a_at) / RFU DUSP10 (11751237_a_at) / Fold change /veh DUSP10 (11751237_a_at) / RFU ID3 (11757404_x_at) / Fold change /veh ID3 (11757404_x_at) / RFU PLEKHG5 (11737974_s_at) / Fold change /veh PLEKHG5 (11737974_s_at) / RFU LRRC4B (11730491_at) / Fold change /veh LRRC4B (11730491_at) / RFU GIMAP4 (11747438_a_at) / Fold change /veh GIMAP4 (11747438_a_at) / RFU KRT8 (11758183_x_at) / Fold change /veh KRT8 (11758183_x_at) / RFU CNN1 (11734310_a_at) / Fold change /veh CNN1 (11734310_a_at) / RFU VPS37D (11726825_at) / Fold change /veh VPS37D (11726825_at) / RFU C10orf10 (11716522_x_at) / Fold change /veh C10orf10 (11716522_x_at) / RFU KIR2DL2 /// KIR2DL4 /// KIR2DL5A /// KIR2DL5B /// KIR2DS1 /// KIR2DS2 /// KIR2DS3 /// KIR2DS4 /// KIR3DL3 /// KIR3DL3 /// KIR3DS1 (11738374_at) / Fold change /veh KIR2DL2 /// KIR2DL4 /// KIR2DL5A /// KIR2DL5B /// KIR2DS1 /// KIR2DS2 /// KIR2DS3 /// KIR2DS4 /// KIR3DL3 /// KIR3DL3 /// KIR3DS1 (11738374_at) / RFU C1QL1 (11718748_at) / Fold change /veh C1QL1 (11718748_at) / RFU TMPRSS4 (11747572_a_at) / Fold change /veh TMPRSS4 (11747572_a_at) / RFU HAMP (11756126_x_at) / Fold change /veh HAMP (11756126_x_at) / RFU RNFT2 (11725882_a_at) / Fold change /veh RNFT2 (11725882_a_at) / RFU NR4A2 (11747474_a_at) / Fold change /veh NR4A2 (11747474_a_at) / RFU ABCC12 (11746883_a_at) / Fold change /veh ABCC12 (11746883_a_at) / RFU TMEM136 (11760407_x_at) / Fold change /veh TMEM136 (11760407_x_at) / RFU CLDN22 /// WWC2 (11732394_at) / Fold change /veh CLDN22 /// WWC2 (11732394_at) / RFU HLA-DPB1 (11760878_x_at) / Fold change /veh HLA-DPB1 (11760878_x_at) / RFU SPINT1 (11716480_a_at) / Fold change /veh SPINT1 (11716480_a_at) / RFU GAP43 (11754022_s_at) / Fold change /veh GAP43 (11754022_s_at) / RFU A4GNT (11735810_at) / Fold change /veh A4GNT (11735810_at) / RFU PRB3 (11715151_x_at) / Fold change /veh PRB3 (11715151_x_at) / RFU TUBB4B (11761932_at) / Fold change /veh TUBB4B (11761932_at) / RFU CAPN14 (11732068_a_at) / Fold change /veh CAPN14 (11732068_a_at) / RFU TMCC2 (11721928_a_at) / Fold change /veh TMCC2 (11721928_a_at) / RFU IRGQ (11745062_a_at) / Fold change /veh IRGQ (11745062_a_at) / RFU FAM174B (11720279_a_at) / Fold change /veh FAM174B (11720279_a_at) / RFU TMPRSS4 (11748680_a_at) / Fold change /veh TMPRSS4 (11748680_a_at) / RFU FAM212B (11763350_a_at) / Fold change /veh FAM212B (11763350_a_at) / RFU PLEKHG5 (11743358_a_at) / Fold change /veh PLEKHG5 (11743358_a_at) / RFU ZSCAN30 (11745921_a_at) / Fold change /veh ZSCAN30 (11745921_a_at) / RFU CMKLR1 (11741424_a_at) / Fold change /veh CMKLR1 (11741424_a_at) / RFU LOC101060620 /// MAPK8IP1 (11723275_at) / Fold change /veh LOC101060620 /// MAPK8IP1 (11723275_at) / RFU SPTSSB (11747773_x_at) / Fold change /veh SPTSSB (11747773_x_at) / RFU PRSS12 (11739890_at) / Fold change /veh PRSS12 (11739890_at) / RFU BIN1 (11741810_x_at) / Fold change /veh BIN1 (11741810_x_at) / RFU WNT11 (11732464_a_at) / Fold change /veh WNT11 (11732464_a_at) / RFU C10orf10 (11716521_a_at) / Fold change /veh C10orf10 (11716521_a_at) / RFU C5orf56 (11738089_at) / Fold change /veh C5orf56 (11738089_at) / RFU CYB561 (11721691_x_at) / Fold change /veh CYB561 (11721691_x_at) / RFU ANKRD19P (11752326_a_at) / Fold change /veh ANKRD19P (11752326_a_at) / RFU OR2T12 /// OR2T33 /// OR2T8 (11738714_s_at) / Fold change /veh OR2T12 /// OR2T33 /// OR2T8 (11738714_s_at) / RFU VCAN (11748164_a_at) / Fold change /veh VCAN (11748164_a_at) / RFU JSRP1 (11732532_at) / Fold change /veh JSRP1 (11732532_at) / RFU KRTAP10-11 (11738290_x_at) / Fold change /veh KRTAP10-11 (11738290_x_at) / RFU MYO3A (11730013_a_at) / Fold change /veh MYO3A (11730013_a_at) / RFU EBF3 (11725865_a_at) / Fold change /veh EBF3 (11725865_a_at) / RFU CAMK2N1 (11719241_x_at) / Fold change /veh CAMK2N1 (11719241_x_at) / RFU C5orf56 (11738088_a_at) / Fold change /veh C5orf56 (11738088_a_at) / RFU OLFML3 (11715873_a_at) / Fold change /veh OLFML3 (11715873_a_at) / RFU LOC100653217 /// NTM (11731650_a_at) / Fold change /veh LOC100653217 /// NTM (11731650_a_at) / RFU MAPK11 (11762145_a_at) / Fold change /veh MAPK11 (11762145_a_at) / RFU FIZ1 (11724087_x_at) / Fold change /veh FIZ1 (11724087_x_at) / RFU OASL (11726364_x_at) / Fold change /veh OASL (11726364_x_at) / RFU SOX15 (11748057_x_at) / Fold change /veh SOX15 (11748057_x_at) / RFU CD79A (11719716_a_at) / Fold change /veh CD79A (11719716_a_at) / RFU HIST1H1D (11736915_at) / Fold change /veh HIST1H1D (11736915_at) / RFU CASKIN2 (11723855_a_at) / Fold change /veh CASKIN2 (11723855_a_at) / RFU LOC730098 (11760151_x_at) / Fold change /veh LOC730098 (11760151_x_at) / RFU OR4N2 (11742367_at) / Fold change /veh OR4N2 (11742367_at) / RFU PRRT2 (11749266_a_at) / Fold change /veh PRRT2 (11749266_a_at) / RFU SNX32 (11753110_a_at) / Fold change /veh SNX32 (11753110_a_at) / RFU CDHR5 (11726645_a_at) / Fold change /veh CDHR5 (11726645_a_at) / RFU RCAN1 (11760418_a_at) / Fold change /veh RCAN1 (11760418_a_at) / RFU FAM167A (11723789_a_at) / Fold change /veh FAM167A (11723789_a_at) / RFU FAM26E (11764081_at) / Fold change /veh FAM26E (11764081_at) / RFU ISYNA1 (11749810_s_at) / Fold change /veh ISYNA1 (11749810_s_at) / RFU ACY1 (11761880_at) / Fold change /veh ACY1 (11761880_at) / RFU 11764098_at / Fold change /veh 11764098_at / RFU SAMD14 (11745864_x_at) / Fold change /veh SAMD14 (11745864_x_at) / RFU NPB (11741838_a_at) / Fold change /veh NPB (11741838_a_at) / RFU TMPRSS6 (11731388_a_at) / Fold change /veh TMPRSS6 (11731388_a_at) / RFU KRTAP10-2 (11738614_at) / Fold change /veh KRTAP10-2 (11738614_at) / RFU ARHGAP8 /// PRR5-ARHGAP8 (11727945_x_at) / Fold change /veh ARHGAP8 /// PRR5-ARHGAP8 (11727945_x_at) / RFU KRTAP5-7 /// NADSYN1 (11734609_at) / Fold change /veh KRTAP5-7 /// NADSYN1 (11734609_at) / RFU RASL12 (11751679_a_at) / Fold change /veh RASL12 (11751679_a_at) / RFU CDKN2B (11736163_a_at) / Fold change /veh CDKN2B (11736163_a_at) / RFU PRF1 (11729649_at) / Fold change /veh PRF1 (11729649_at) / RFU, ZNF638 /// ZNF638-IT1 / Fold change vs veh, ZNF638 /// ZNF638-IT1 / RFU, PANK3 / Fold change vs veh, PANK3 / RFU, SH3YL1 / Fold change vs veh, SH3YL1 / RFU, ZEB2 / Fold change vs veh, ZEB2 / RFU, NRIP1 / Fold change vs veh, NRIP1 / RFU, PTTG1IP / Fold change vs veh, PTTG1IP / RFU, CAPN2 / Fold change vs veh, CAPN2 / RFU, MED14 / Fold change vs veh, MED14 / RFU, SNORA58 / Fold change vs veh, SNORA58 / RFU, C1orf63 / Fold change vs veh, C1orf63 / RFU, LRRFIP1 / Fold change vs veh, LRRFIP1 / RFU, NDUFAF7 / Fold change vs veh, NDUFAF7 / RFU, SLC12A2 / Fold change vs veh, SLC12A2 / RFU, IBTK / Fold change vs veh, IBTK / RFU, ESF1 / Fold change vs veh, ESF1 / Fold change vs veh, TMEM50B / RFU, TAOK1 / Fold change vs veh, TAOK1 / RFU, ACBD3 / Fold change vs veh, ACBD3 / RFU, TMA16 / Fold change vs veh, TMA16 / RFU, RWDD3 / Fold change vs veh, RWDD3 / RFU, BCAT1 / Fold change vs veh, BCAT1 / RFU, EDEM3 / Fold change vs veh, EDEM3 / RFU, TMEM33 / Fold change vs veh, TMEM33 / RFU, WDR75 / Fold change vs veh, WDR75 / RFU, AHCTF1 / Fold change vs veh, AHCTF1 / RFU, TFRC / Fold change vs veh, TFRC / RFU, ZDHHC17 / Fold change vs veh, ZDHHC17 / RFU, NOM1 / Fold change vs veh, NOM1 / RFU, ARL8B / Fold change vs veh, ARL8B / RFU, ZBTB11 / Fold change vs veh, ZBTB11 / RFU, TAMM41 / Fold change vs veh, TAMM41 / RFU, KIAA1704 /// LOC100996395 / Fold change vs veh, KIAA1704 /// LOC100996395 / RFU, ING1 / Fold change vs veh, ING1 / RFU, TRMT61B / Fold change vs veh, TRMT61B / RFU, FUBP3 / Fold change vs veh, FUBP3 / RFU, TP53 / Fold change vs veh, TP53 / RFU, TNKS2 / Fold change vs veh, TNKS2 / RFU, ZFP14 / Fold change vs veh, ZFP14 / RFU, ACTR2 / Fold change vs veh, ACTR2 / RFU, PPP3R1 / Fold change vs veh, PPP3R1 / RFU, PIK3R1 / Fold change vs veh, PIK3R1 / RFU, HNRNPA1 / Fold change vs veh, HNRNPA1 / RFU, RNF170 / Fold change vs veh, RNF170 / RFU, ZNF28 / Fold change vs veh, ZNF28 / RFU, RNGTT / Fold change vs veh, RNGTT / RFU, OGT / Fold change vs veh, OGT / RFU, BRD1 / Fold change vs veh, BRD1 / RFU, MARS / Fold change vs veh, MARS / RFU, ZNF655 / Fold change vs veh, ZNF655 / RFU, FAHD1 / Fold change vs veh, FAHD1 / RFU, BDP1 / Fold change vs veh, BDP1 / RFU, LRRCC1 / Fold change vs veh, LRRCC1 / RFU, ARID1A / Fold change vs veh, ARID1A / RFU, ZNF146 / Fold change vs veh, ZNF146 / RFU, ZNF330 / Fold change vs veh, ZNF330 / RFU, GPN3 / Fold change vs veh, GPN3 / RFU, C9orf123 / Fold change vs veh, C9orf123 / RFU, N4BP2L2 / Fold change vs veh, N4BP2L2 / RFU, ARFIP1 / Fold change vs veh, ARFIP1 / RFU, FAM179B / Fold change vs veh, FAM179B / RFU, BCL10 / Fold change vs veh, BCL10 / RFU, UHRF1BP1L / Fold change vs veh, UHRF1BP1L / RFU, BET1 / Fold change vs veh, BET1 / RFU, CNOT2 / Fold change vs veh, CNOT2 / RFU, ZNF268 / Fold change vs veh, ZNF268 / Fold change vs veh, ZNF507 / RFU, DGCR2 / Fold change vs veh, DGCR2 / RFU, WDSUB1 / Fold change vs veh, WDSUB1 / Fold change vs veh, HSP90B1 /// MIR3652 / RFU, ADSS / Fold change vs veh, ADSS / RFU, GK / Fold change vs veh, GK / RFU, ZNF148 / Fold change vs veh, ZNF148 / RFU, TAF9 / Fold change vs veh, TAF9 / RFU, SLC1A5 / Fold change vs veh, SLC1A5 / RFU, SLMO2 / Fold change vs veh, SLMO2 / RFU, ABCC4 / Fold change vs veh, ABCC4 / RFU, LOC101060439 /// RAP1B / Fold change vs veh, LOC101060439 /// RAP1B / RFU, RFX7 / Fold change vs veh, RFX7 / RFU, GTPBP10 / Fold change vs veh, GTPBP10 / RFU, CNEP1R1 / Fold change vs veh, CNEP1R1 / RFU, BIVM-ERCC5 /// ERCC5 / Fold change vs veh, BIVM-ERCC5 /// ERCC5 / RFU, ILF3 / Fold change vs veh, ILF3 / RFU 11762660_at / Fold change /veh 11762660_at / RFU VCAN (11757783_s_at) / Fold change /veh VCAN (11757783_s_at) / RFU DDX43 (11728927_at) / Fold change /veh DDX43 (11728927_at) / RFU KRT8 (11758188_x_at) / Fold change /veh KRT8 (11758188_x_at) / RFU NKD1 (11759106_at) / Fold change /veh NKD1 (11759106_at) / RFU SRD5A1 (11742802_a_at) / Fold change /veh SRD5A1 (11742802_a_at) / RFU TPSAB1 /// TPSB2 (11721975_s_at) / Fold change /veh TPSAB1 /// TPSB2 (11721975_s_at) / RFU GSTM3 (11746129_a_at) / Fold change /veh GSTM3 (11746129_a_at) / RFU IL23R (11737362_x_at) / Fold change /veh IL23R (11737362_x_at) / RFU TMEM51 (11727254_a_at) / Fold change /veh TMEM51 (11727254_a_at) / RFU PIWIL2 (11732686_x_at) / Fold change /veh PIWIL2 (11732686_x_at) / RFU ORM1 (11744905_x_at) / Fold change /veh ORM1 (11744905_x_at) / RFU CCDC152 (11743942_at) / Fold change /veh CCDC152 (11743942_at) / RFU ECM1 (11717891_a_at) / Fold change /veh ECM1 (11717891_a_at) / RFU IL23R (11748794_a_at) / Fold change /veh IL23R (11748794_a_at) / RFU TNFAIP8L3 (11732012_x_at) / Fold change /veh TNFAIP8L3 (11732012_x_at) / RFU MBOAT4 (11741988_at) / Fold change /veh MBOAT4 (11741988_at) / RFU 11764193_at / Fold change /veh 11764193_at / RFU TMEM53 (11763286_at) / Fold change /veh TMEM53 (11763286_at) / RFU MAGEB2 (11727129_at) / Fold change /veh MAGEB2 (11727129_at) / RFU TMEM200A (11744735_a_at) / Fold change /veh TMEM200A (11744735_a_at) / RFU CCDC152 (11751479_a_at) / Fold change /veh CCDC152 (11751479_a_at) / RFU FAM211A (11726209_a_at) / Fold change /veh FAM211A (11726209_a_at) / RFU RGS16 (11746705_a_at) / Fold change /veh RGS16 (11746705_a_at) / RFU VCAN (11755009_s_at) / Fold change /veh VCAN (11755009_s_at) / RFU RHOB (11743442_s_at) / Fold change /veh RHOB (11743442_s_at) / RFU RGS16 (11720943_a_at) / Fold change /veh RGS16 (11720943_a_at) / RFU RGS16 (11720944_at) / Fold change /veh RGS16 (11720944_at) / RFU, VPS4B / Fold change vs veh, VPS4B / RFU, CREB1 / Fold change vs veh, CREB1 / RFU, DNAJC13 / Fold change vs veh, DNAJC13 / RFU, GNAQ / Fold change vs veh, GNAQ / RFU, CDK5R1 / Fold change vs veh, CDK5R1 / RFU, ZRANB3 / Fold change vs veh, ZRANB3 / RFU, CUL4A / Fold change vs veh, CUL4A / RFU, CCNY / Fold change vs veh, CCNY / RFU, UFL1 / Fold change vs veh, UFL1 / RFU, COG3 / Fold change vs veh, COG3 / RFU, DIAPH2 / Fold change vs veh, DIAPH2 / RFU, SKA2 / Fold change vs veh, SKA2 / RFU, AFF3 / Fold change vs veh, AFF3 / RFU, LMF1 / Fold change vs veh, LMF1 / RFU, IPO11 / Fold change vs veh, IPO11 / RFU, DFFB / Fold change vs veh, DFFB / RFU, FOXP1 / Fold change vs veh, FOXP1 / RFU, CARD8 / Fold change vs veh, CARD8 / RFU, STRN3 / Fold change vs veh, STRN3 / RFU, ADK / Fold change vs veh, ADK / RFU, RASSF2 / Fold change vs veh, RASSF2 / RFU, WIPF1 / Fold change vs veh, WIPF1 / RFU, LARP1B / Fold change vs veh, LARP1B / RFU, RASA1 / Fold change vs veh, RASA1 / RFU, RB1 / Fold change vs veh, RB1 / RFU, PPFIA1 / Fold change vs veh, PPFIA1 / RFU, MAT2A / Fold change vs veh, MAT2A / RFU, CCT5 / Fold change vs veh, CCT5 / RFU, WDR92 / Fold change vs veh, WDR92 / RFU, CUX1 / Fold change vs veh, CUX1 / RFU, TTC7A / Fold change vs veh, TTC7A / RFU, TMEM135 / Fold change vs veh, TMEM135 / RFU, DEPTOR / Fold change vs veh, DEPTOR / RFU, CPM / Fold change vs veh, CPM / RFU, DNAJB6 / Fold change vs veh, DNAJB6 / RFU, CACNA2D3 / Fold change vs veh, CACNA2D3 / RFU, DTX4 / Fold change vs veh, DTX4 / RFU, TFCP2 / Fold change vs veh, TFCP2 / RFU, GMCL1 /// GMCL1P1 / Fold change vs veh, GMCL1 /// GMCL1P1 / RFU, AEBP2 / Fold change vs veh, AEBP2 / RFU, SNHG1 /// SNORD22 /// SNORD25 /// SNORD26 /// SNORD27 /// SNORD28 /// SNORD29 /// SNORD31 / Fold change vs veh, SNHG1 /// SNORD22 /// SNORD25 /// SNORD26 /// SNORD27 /// SNORD28 /// SNORD29 /// SNORD31 / Fold change (Aza/veh), C12orf56 (ProbeSet 11735607_a_at) / Fold change (ACY-1035/veh), C12orf56 (ProbeSet 11735607_a_at) / Fold change (Aza/veh), FGFR1OP (ProbeSet 11751329_s_at) / Fold change (ACY-1035/veh), FGFR1OP (ProbeSet 11751329_s_at) / Fold change (Aza/veh), VPS36 (ProbeSet 11739960_a_at) / Fold change (ACY-1035/veh), VPS36 (ProbeSet 11739960_a_at) / RFU SYPL1 (11715823_x_at) / Fold change /veh SYPL1 (11715823_x_at) / RFU IGFBP7 (11715501_s_at) / Fold change /veh IGFBP7 (11715501_s_at) / RFU REEP3 (11722064_at) / Fold change /veh REEP3 (11722064_at) / RFU IGLL1 (11728026_x_at) / Fold change /veh IGLL1 (11728026_x_at): dose or concentration left out as unconfirmed
Conditions: ProbeSet 11749477_a_at; LIST B

Nc1ccc(-c2cccs2)cc1NC(=O)c1ccc2c(c1)cc(C1CC1)n2CCN1CCOCC1 [ACY-1035] was tested, and the “RFU, EDEM3” value was 51.94 RFU.
